Measurements as given in patent publication US20050004029A1, “Methods and compositions for treating vascular leak using hepatocyte growth factor” (priority 2001, published 2005).
Several values for one entry are separate records, joined by “and”; a condition that tells them apart may be missing. Equal values may be shown once.

What was measured:
[1] = system: Human pulmonary artery endothelial cells; assay: Transendothelial electrical resistance (TER) of human pulmonary artery endothelial cell monolayers; type: cell-based; settings: HGF 100 ng/ml; baseline TER ~1600 Ω
p38 MAPK = p38 MAPK activation by phospho-specific immunoblotting; type: cell-based, human; settings: HGF 20 ng/ml
Protocol: Endothelial cell monolayers grown to confluence in 12-well plates and challenged with HGF were lysed with 100 μl of 2×SDS sample buffer, and cell lysates were transferred into microcentrifuge tubes and boiled for 5 min. After a brief spin, proteins from 10 μl cell lysates were separated on 12% SDS-PAGE and transferred to nitrocellulose (Schleicher & Schuell, Keene, N.H.) (30V, 18 h). After blocking with PBST (PBS with 0.1% Tween 20) containing 5% non-fat milk for 1 hr, nitrocellulose blots were reacted with primary antibodies diluted in PBST containing 5% BSA for 1 hr, washed with PBST (3×10 min), incubated with peroxidase-conjugated secondary antibodies (goat anti-rabbit IgG, 1:10,000 dilution, Sigma; or goat anti-mouse IgG, 1:10,000 dilution, Bio-Rad Labs, Richmond, Calif.) diluted in PBST with 5% non-fat milk for 1 hr and again washed with PBST (3×10 min). Finally, immunoreactive proteins were detected using ECL. The relative intensities of the protein bands were quantified by scanning densitometry.
The MAP family of kinases (ERK1/2 and p38) are actively involved in agonist-induced endothelial cell actin reorganization and barrier regulation (Verin, A. D. et al. (2000) Am. J. Physiol: Lung Cell Molec. Phys. 279:L360-L370, 2000; Garcia, J. G. N. et al. (2001) J. Clin. Invest. 108:689-711) and have been noted to participate in HGF-mediated cell activation (Liang, C. C. and Chen, H. C. (2001) J. Biol. Chem. 276:21146-21152). These reports were confirmed in human endothelial cell monolayers incubated with HGF (20 ng/ml, for 1, 2, 5, 10, 15, 20, 30, 60, or 120 min) where activation of p42/44 ERK and p38 MAPK by HGF was detected by immunoblotting with antibodies that only recognize the phosphorylated (activated) forms of ERK or p38 MAPK. The activation of ERKs was evident at 5 min, maximal after 10-15 min with a gradual decline thereafter, but remaining sustained above basal levels for more than 2 hrs. […] The onset of HGF-mediated activation of p38 MAPK was similar to ERK, with plateau at 10-15 min. […]

[2] = system: Human pulmonary artery endothelial cells; assay: Transendothelial electrical resistance (TER) of human pulmonary artery endothelial cell monolayers; type: cell-based
Protocol: Bovine pulmonary artery endothelial cells were purchased from the American Type Culture Collection (ATCC®, Rockville, Md.) and utilized at passage 19-24. Cells were maintained in Medium 199 (Life Technologies, Rockville, Md.) supplemented with 20% (v/v) colostrum-free bovine serum (CFBS) (Irvine Scientific, Santa Ana, Calif.), 15 μg/ml endothelial cell growth supplement (Upstate Biotechnology, Lake Placid, N.Y.), 1% antibiotic and antimycotic, and 0.1 mM non-essential amino acids (Life Technologies). Human pulmonary artery endothelial cells were purchased from Clonetics (Walkersville, Md.), cultured in EBM-2 complete medium (Clonetics) and utilized at passage 5-10. Human alveolar epithelial cells (A549) were purchased from ATCC® and cultured in the same medium as the bovine endothelial cells, except that the endothelial cell growth supplement was omitted. All cells were maintained at 37° C. in a humidified atmosphere of 5% CO2 and 95% air. Both endothelial cell types grew to contact-inhibited monolayers with the typical cobblestone morphology (Garcia, J. G. N. et al. (1995) J. Cell. Physiol. 163:510-522; Liu, F. et al. (2001) Am. J. Respir. Cell. Mol. Biol. 24:711-719).
Electrical resistance of EC monolayers was measured using electrical cell impedance sensor system (Applied Biophysics Inc., Troy, N.Y.) as described in Garcia, J. G. N. et al. (2000) J. Appl. Physiol. 89:2333-2343. Cells grown on gold microelectrodes (10^−3 cm^2) in polycarbonate wells act as insulating particles, and the resistance across the monolayers (transendothelial electrical resistance, or TER) is measured in real time. As cells adhere on the microelectrode and intercellular cell contacts are formed or in response to agents which increase junctional integrity, the TER increases (Garcia, J. G. N. et al. (2001) J. Clin. Invest. 108:689-711). In contrast, cell retraction, rounding, or loss of adhesion is reflected by decreases in TER (Garcia, J. G. N. et al. (2000) J. Appl. Physiol. 89:2333-2343). These measurements provide a highly sensitive biophysical assay that indicates the state of cell shape, focal adhesion, and endothelial barrier function (Giaever, I. and Keese, C. R. (1993) Nature 366:591-592; Tiruppathi, C. et al. (1992) Proc. Natl. Acad. Sci. USA 89:7919-7923). All electrical resistance data are presented as normalized values. Briefly, current was applied across the electrodes by a 4000 Hz AC voltage source with an amplitude of 1 V in series with a 1 MΩ resistance to approximate a constant current source (−1 μA). The small gold electrode and the larger counter electrode (1 cm^2) were connected to a phase-sensitive lock-in amplifier (5301A; EG&G Instruments Corp, Princeton, N.J.) with a built in differential preamplifier (5316A; EG&G Instruments Corp.). The in-phase and out-of-phase voltages between the electrodes were monitored in real time with the lock-in amplifier and converted to scalar measurements of transendothelial impedance, of which resistance was the primary focus. Transendothelial electrical resistance was monitored for 30 min to establish a baseline resistance (Ro) which, for human lung endothelium, was typically between 8 to 12×10^3 Ω (wells with R0<7×10^3 Ω or R0 >15×10^3 Ω were rejected). For some experiments, total TER was vectorially resolved into components reflecting resistance to current flow beneath the cell layer (α) and resistance to current flow between adjacent cells (Rb) as described in Garcia et al. (2000) supra utilizing the method of Giaiver and Keese which models the endothelial monolayer mathematically (Giaever, I. and Keese, C. R. (1993) Nature 366:591-592). Thus, changes in α reflect alterations in the net state of cell-matrix adhesion, whereas changes in Rb reflect alterations in the integrity of cell-cell adhesion. TER values from each microelectrode were pooled at discrete time points and plotted versus time as the mean±standard error of the mean (Garcia et al. (2000) supra). […]

Rac GTPase = Rac GTPase activity, p21 Rac-binding domain assay; type: cell-based; settings: HGF 10 ng/mL or Sph-1-P 1 μM for 1 or 5 min
Protocol: Endothelial cells grown in 100 mm dishes were incubated with agonists in serum-free M199. Cells were lysed in 500 μl Mg^2+ lysis buffer (Upstate Biotechnology, Lake Placid, N.Y.) and homogenized by pipetting. After a brief centrifugation to remove the cell debris, 300 μl of supernatant was incubated with the agarose-conjugated p21-binding domain (PBD) of human PAK-1 (10 μg, 30 min, Upstate Biotechnology). The agarose beads were washed with 1 ml of lysis buffer 5 times and re-suspended in 30 μl of 2×SDS buffer. After 10 min centrifugation at 14,000 g, 15 μl of supernatant from each sample was subjected to electrophoresis in 15% PAGE. […] For total Rac protein measurement, 5 μl of the original cell lysates were used for electrophoresis and western analysis. […] Pulmonary artery endothelial cells were incubated with HGF (10 ng/mL) or Sph-1-P (1 μM) for 1 or 5 min. Cells were lysed, supernatants collected, and activated GTP-bound Rac was precipitated by agarose-conjugated human PAK-1 p21-binding domain and subsequently immunoblotted by anti-Rac mAb. Total Rac protein was detected using cell lysates.

Substance: HGF: heparin-binding glycoprotein, multifunctional cytokine, ligand of c-Met; purchased from R&D Systems
- peak TER [1]: ~2400 Ω
- time at which p38 MAPK activation begins to decline (p38 MAPK): ≤ 20 min
- time of plateau of p38 MAPK activation (p38 MAPK): 10 to 15 min
- time of return of p38 MAPK activation to basal value (p38 MAPK): ≤ 1 h
- increase in TER (barrier enhancement) ([2]; HGF 100 ng/ml, at peak): ~50% and > 50%
- direct effect on TER ([2]; HGF 2-100 ng/ml, NK2 1-100 ng/ml): increased TER in a dose-dependent manner
- time at which elevation in TER is clearly evident ([2]; HGF 2 to 100 ng/ml): 1 to 2 min
- further increase in TER above 100 ng/ml ([2]; HGF >100 ng/ml): No further significant increases in TER
- time of peak TER increase ([2]; after exposure to 100 ng/ml HGF): 15 to 20 min
- TER response to re-stimulation with HGF (10 ng/ml) at 2 hr ([2]; pretreatment with HGF at 10 and 100 ng/mL): significantly reduced the subsequent HGF responses
- TER response to re-stimulation with HGF (10 ng/ml) at 2 hr ([2]; prior HGF stimulation at 1 ng/ml): not altered
- paracellular junction resistance (Rb) ([2]; vectorial partitioning of TER after HGF treatment): sharp increases
- Rac activity (Rac GTPase): rapidly and transiently increases Rac activity
